Measurements published in ChEMBL document CHEMBL1201862, “PubChem BioAssay data set” (2004).
Active and inactive are the calls of the source.

How the values were obtained:
[1] = inhibitors of firefly luciferase expression or activity, dose response, H4 neuroglioma cells, luminescence (AID 1990); format: functional, cell-based
[2] = biological target: FAD-linked sulfhydryl oxidase ALR (Homo sapiens, UniProt P55789); assay: inhibitors of human ALR sulfhydryl oxidase, dose response, biochemical, H2O2 detection, luminescence, cherry-pick (AID 493248)
FAD-linked sulfhydryl oxidase ALR, sequence (P55789 whole entry): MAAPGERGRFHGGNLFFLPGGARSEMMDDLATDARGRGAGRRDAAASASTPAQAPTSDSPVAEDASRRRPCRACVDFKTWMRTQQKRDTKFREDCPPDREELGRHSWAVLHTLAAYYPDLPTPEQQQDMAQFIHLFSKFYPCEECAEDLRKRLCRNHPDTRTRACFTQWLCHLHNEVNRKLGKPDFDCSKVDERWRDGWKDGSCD

[3] = inhibitors of SNCA 5'UTR-driven reporter translation, confirmation, H4 neuroglioma cells, luminescence (AID 1988); format: functional, cell-based
[4] = Luminescence Cell-Based Dose Response HTS to Identify Inhibitors of 5'UTR Stem-Loop Driven Prion Protein mRNA Translation in H4 Neuroglioblastoma Cells. [Related pubchem assays: 1827 (Project Summary), 1813 (Primary HTS)]; format: functional
[5] = test system: Streptococcus sp. 'group A'; assay: growth inhibition of control SK(-) GAS strain, dose response, counter-screen for streptokinase expression inhibitor project, luminescence, kanamycin, BacTiterGlo, confirmation (AID 1900); format: functional, organism-based
[6] = test system: Vero; assay: cells; format: functional; conditions: Chlorocebus sabaeus
[7] = test system: Streptococcus; assay: Group A Streptococcus viability loss, dose response, counter-screen for streptokinase expression inhibitor project, luminescence, BacTiterGlo (AID 1915); format: functional, organism-based;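 further: potency for reduction of bacterial viability or growth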
[8] = test system: INS1; assay: beta cell apoptosis inhibitors, cytokine rescue, dose response, luminescence, retest (AID 449756); format: functional, cell-based; conditions: Rattus norvegicus, INS1;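 further: cell death triggered by IL-1 beta plus TNF-alpha plus IFN-gamma mixture; protective hits raise ATP signal compared with cytokine alone wells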
[9] = cytotoxicity in HEK-293T cells, dose response, cytotoxicity control for TCR NF-kB inhibitor project, luminescence, T-cell screen hits (AID 489026); format: functional, cell-based;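 further: cells exposed to compound about 14 hours before the viability readout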
[10] = test system: P388; assay: cells; format: functional; conditions: Mus musculus
[11] = test system: SN12K1; assay: cells; format: functional; conditions: Homo sapiens
[12] = test system: P388/ADR; assay: cells; format: functional; conditions: Mus musculus
[13] = growth suppression of PTEN-null colon cells, dose response, cell-based, HCT116 PTEN knockout (AID 1047); format: functional;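 further: HCT116 colon tumor cells with PTEN knocked out; cells exposed to compound for 60 hours before readout; potency for loss of cell viability measured by luminescence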
[14] = growth suppression of beta-catenin-knockout colon cells, dose response, cell-based, HCT116, human colon tumor (AID 1045); format: functional;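 further: HCT116 colon tumor cells with beta catenin knocked out; cells exposed to compound for 60 hours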
[15] = biological target: T1, Cytochrome P450 1A2 (Homo sapiens, UniProt P05177);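 further: PubChem cytochrome P450 panel assay, CYP1A2 panel member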
T1 sequence (P05177 whole entry): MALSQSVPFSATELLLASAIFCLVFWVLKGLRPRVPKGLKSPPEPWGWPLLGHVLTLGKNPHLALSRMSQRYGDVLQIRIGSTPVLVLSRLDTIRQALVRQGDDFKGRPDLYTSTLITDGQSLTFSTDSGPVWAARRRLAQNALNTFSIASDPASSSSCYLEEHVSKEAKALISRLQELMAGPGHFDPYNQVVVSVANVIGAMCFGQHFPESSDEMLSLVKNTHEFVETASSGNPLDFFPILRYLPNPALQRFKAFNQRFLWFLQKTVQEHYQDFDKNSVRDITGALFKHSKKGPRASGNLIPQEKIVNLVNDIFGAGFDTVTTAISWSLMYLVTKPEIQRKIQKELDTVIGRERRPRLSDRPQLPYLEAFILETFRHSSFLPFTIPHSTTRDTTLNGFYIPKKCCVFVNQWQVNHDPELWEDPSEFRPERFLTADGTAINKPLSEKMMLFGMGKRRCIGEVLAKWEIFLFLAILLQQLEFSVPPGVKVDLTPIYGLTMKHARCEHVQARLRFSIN

[16] = biological target: Cytochrome P450 2C9 (Homo sapiens, UniProt P11712)
Cytochrome P450 2C9, sequence (P11712 whole entry): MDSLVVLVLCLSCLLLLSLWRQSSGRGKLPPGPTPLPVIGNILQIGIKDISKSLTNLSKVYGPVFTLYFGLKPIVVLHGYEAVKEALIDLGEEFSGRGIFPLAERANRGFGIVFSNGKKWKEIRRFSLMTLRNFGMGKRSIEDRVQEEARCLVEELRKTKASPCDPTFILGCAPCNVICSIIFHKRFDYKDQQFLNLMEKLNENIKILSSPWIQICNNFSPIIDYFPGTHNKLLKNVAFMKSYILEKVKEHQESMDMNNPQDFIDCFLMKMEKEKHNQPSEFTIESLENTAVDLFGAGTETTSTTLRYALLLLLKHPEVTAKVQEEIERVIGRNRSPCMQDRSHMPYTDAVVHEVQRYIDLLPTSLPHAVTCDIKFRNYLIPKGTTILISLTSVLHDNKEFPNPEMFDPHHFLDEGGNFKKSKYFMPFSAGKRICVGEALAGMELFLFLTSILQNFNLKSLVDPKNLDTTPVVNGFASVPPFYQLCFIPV

[17] = biological target: Cytochrome P450 3A4 (Homo sapiens, UniProt P08684);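 further: CYP3A4 tested as one member of a cytochrome P450 panel screen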
Cytochrome P450 3A4, sequence (P08684 whole entry): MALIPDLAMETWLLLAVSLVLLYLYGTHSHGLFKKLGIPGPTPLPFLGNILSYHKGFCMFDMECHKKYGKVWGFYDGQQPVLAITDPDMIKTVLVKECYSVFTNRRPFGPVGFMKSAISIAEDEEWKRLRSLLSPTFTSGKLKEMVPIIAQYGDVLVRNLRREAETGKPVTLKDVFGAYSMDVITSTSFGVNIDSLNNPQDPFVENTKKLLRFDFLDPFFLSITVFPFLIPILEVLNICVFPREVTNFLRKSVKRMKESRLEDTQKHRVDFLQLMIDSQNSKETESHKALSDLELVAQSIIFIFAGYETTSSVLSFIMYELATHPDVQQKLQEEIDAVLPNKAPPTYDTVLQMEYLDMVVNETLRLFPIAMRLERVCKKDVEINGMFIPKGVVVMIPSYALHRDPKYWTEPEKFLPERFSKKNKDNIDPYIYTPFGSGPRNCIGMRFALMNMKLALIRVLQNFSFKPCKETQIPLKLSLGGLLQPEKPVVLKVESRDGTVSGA

[18] = biological target: T2, Calpain-2 catalytic subunit (Sus scrofa, UniProt P43367); assay: pig calpain II inhibitor potency, dose response, biochemical, fluorogenic peptide substrate (AID 1420); format: functional
T2 sequence (P43367 whole entry): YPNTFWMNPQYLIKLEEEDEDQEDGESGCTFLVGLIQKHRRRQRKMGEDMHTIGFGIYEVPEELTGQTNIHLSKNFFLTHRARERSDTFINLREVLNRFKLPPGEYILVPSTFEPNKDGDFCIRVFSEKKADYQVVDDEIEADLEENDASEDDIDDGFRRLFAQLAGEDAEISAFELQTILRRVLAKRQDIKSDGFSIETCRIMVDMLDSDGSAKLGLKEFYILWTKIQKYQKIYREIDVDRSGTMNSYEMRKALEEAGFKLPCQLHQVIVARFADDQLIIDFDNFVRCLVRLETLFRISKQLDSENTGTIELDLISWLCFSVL

[19] = biological target: T3, Heat shock factor protein 1 (Mus musculus, UniProt P38532); assay: HSF1 potentiators in luciferase reporter cells, confirmation, cell-based, NIH3T3, luminescence, dose retest (AID 435004); format: functional;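 further: stress induced by proteasome inhibitor MG132 added 30 min after compound; luciferase reporter driven by HSF1 response element in NIH3T3 cells; actives raise luminescence as potentiators of the MG132 stress response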
T3 sequence (P38532 whole entry): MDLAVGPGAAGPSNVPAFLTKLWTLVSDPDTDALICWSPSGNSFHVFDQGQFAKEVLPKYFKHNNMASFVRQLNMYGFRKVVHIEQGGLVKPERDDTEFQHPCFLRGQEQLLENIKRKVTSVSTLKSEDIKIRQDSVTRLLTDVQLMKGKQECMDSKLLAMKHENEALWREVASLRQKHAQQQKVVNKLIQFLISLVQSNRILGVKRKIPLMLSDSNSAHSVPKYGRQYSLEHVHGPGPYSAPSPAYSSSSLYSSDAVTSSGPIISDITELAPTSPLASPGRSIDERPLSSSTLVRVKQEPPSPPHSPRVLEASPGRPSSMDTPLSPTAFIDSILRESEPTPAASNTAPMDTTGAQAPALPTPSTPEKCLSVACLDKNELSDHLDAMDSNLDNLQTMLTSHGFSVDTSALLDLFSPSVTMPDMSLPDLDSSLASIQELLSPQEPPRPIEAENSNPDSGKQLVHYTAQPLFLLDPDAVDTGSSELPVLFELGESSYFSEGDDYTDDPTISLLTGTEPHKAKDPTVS

[20] = biological target: Cytochrome P450 2C19 (Homo sapiens, UniProt P33261); assay: Cytochrome panel assay with activity outcomes. Panel member name: p450-cyp2c19 Compounds with AC50 equal or less than 10 uM are considered active; format: functional; conditions: read-out: AC50
Cytochrome P450 2C19, sequence (P33261 whole entry): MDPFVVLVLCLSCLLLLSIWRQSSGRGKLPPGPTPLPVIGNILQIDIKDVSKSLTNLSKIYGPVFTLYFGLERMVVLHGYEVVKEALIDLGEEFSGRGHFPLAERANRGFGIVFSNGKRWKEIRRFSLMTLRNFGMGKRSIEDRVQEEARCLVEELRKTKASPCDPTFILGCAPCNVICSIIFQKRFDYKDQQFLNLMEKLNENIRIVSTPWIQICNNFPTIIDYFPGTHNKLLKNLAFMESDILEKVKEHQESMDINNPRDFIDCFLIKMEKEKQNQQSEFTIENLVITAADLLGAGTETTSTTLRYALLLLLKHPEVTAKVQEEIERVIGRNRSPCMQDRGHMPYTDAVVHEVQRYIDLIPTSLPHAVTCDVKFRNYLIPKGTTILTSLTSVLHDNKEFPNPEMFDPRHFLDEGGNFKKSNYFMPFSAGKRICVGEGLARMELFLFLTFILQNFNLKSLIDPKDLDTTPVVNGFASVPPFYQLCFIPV

[21] = biological target: Cytochrome P450 2D6 (Homo sapiens, UniProt P10635);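 further: CYP2D6 member of a cytochrome P450 panel assay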
Cytochrome P450 2D6, sequence (P10635 whole entry): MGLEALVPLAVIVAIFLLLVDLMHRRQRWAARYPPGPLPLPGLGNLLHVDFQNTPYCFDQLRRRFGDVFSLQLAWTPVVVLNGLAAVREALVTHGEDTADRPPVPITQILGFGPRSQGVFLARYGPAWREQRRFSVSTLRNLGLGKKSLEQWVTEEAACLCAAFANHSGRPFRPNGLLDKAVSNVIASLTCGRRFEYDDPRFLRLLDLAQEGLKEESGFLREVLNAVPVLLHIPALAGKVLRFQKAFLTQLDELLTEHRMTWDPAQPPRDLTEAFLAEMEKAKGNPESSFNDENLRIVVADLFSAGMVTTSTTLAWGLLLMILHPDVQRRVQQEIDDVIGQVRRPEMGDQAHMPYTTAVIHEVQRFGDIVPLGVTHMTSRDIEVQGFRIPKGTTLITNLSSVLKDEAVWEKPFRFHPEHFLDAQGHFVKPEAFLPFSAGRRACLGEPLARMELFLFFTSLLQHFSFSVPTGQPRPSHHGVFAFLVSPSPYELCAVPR

[22] = Luminescence Cell-Based Dose Retest to Confirm Inhibitors of Cancer Stem Cells. [Related pubchem assays (depositor defined):AID2717, AID2721]; format: functional; conditions: Homo sapiens
[23] = biological target: Paired box protein Pax-8 (Homo sapiens, UniProt Q06710); assay: inhibitors of PAX8-driven TPO luciferase reporter, dose response, RMG-I cells, cherry-pick (AID 687027); format: functional, cell-based;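 further: luciferase reporter driven by Pax8 target thyroperoxidase promoter measured by SteadyGlo luminescence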
Paired box protein Pax-8, sequence (Q06710 whole entry): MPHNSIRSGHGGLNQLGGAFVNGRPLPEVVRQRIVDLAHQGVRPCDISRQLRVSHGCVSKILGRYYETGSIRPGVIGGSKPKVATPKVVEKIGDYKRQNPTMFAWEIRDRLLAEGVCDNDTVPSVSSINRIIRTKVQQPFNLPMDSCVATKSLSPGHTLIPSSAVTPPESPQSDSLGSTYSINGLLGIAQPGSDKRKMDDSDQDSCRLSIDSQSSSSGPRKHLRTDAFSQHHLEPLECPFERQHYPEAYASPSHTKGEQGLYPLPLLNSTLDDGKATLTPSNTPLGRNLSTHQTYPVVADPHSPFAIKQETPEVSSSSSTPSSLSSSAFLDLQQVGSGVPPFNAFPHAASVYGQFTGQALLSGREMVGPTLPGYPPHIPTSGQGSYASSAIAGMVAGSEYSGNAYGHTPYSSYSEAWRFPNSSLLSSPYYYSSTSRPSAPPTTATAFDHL

SMILES: Cc1[nH]c2ccc(-c3nnc(S)n3C)cc2c1C
- EC50 [1]: 8.15 µM (active)
- AC50 [2]: 0.664 µM (active)
- EC50 [3]: 14 µM (active)
- EC50 [4]: 19.2 µM (active)

SMILES: CC(C)(C)c1ccc(C(=O)NNC(=S)NC(=O)c2cccnc2)cc1
- EC50 [1]: 14.4 µM (active)
- EC50 [5]: 0.47 µM (active)
- CC50 [6]: > 25 µM (active)
- EC50 [3]: 10.8 µM (active)
- EC50 [7]: 2.42 µM (active)
- EC50 [4]: 18.2 µM (active)

SMILES: COc1ccc(C(=O)N2CCN(c3ccc([N+](=O)[O-])c(NCCc4ccc(OC)c(OC)c4)c3)CC2)cc1
- AC50 [8]: 2.53 µM (active)
- IC50 [9]: > 80 µM (inactive)

SMILES: CC(C(=O)O)c1cnn(-c2ccccc2)c1-n1cccc1 (stereo unspecified)
- GI50 [10]: > 100 µM (inactive)
- GI50 [11]: > 100 µM (inactive)
- GI50 [12]: > 100 µM (inactive)

SMILES: N#CC1=C(N)OC2=C(CC/C2=C\c2ccccc2Cl)C1c1ccccc1Cl (stereo unspecified)
- CC50 [6]: 22 µM (active)
- EC50 [13]: 21.1 µM (active)
- EC50 [14]: 18.3 µM (active)

SMILES: CCCCCCCCCC[S+]([O-])CC(CO)NC(=O)/C=C/c1c(C)nc(O)nc1O (stereo unspecified)
- GI50 [10]: 0.0443 µM (active)
- GI50 [11]: 0.612 µM (active)
- GI50 [12]: 2.25 µM (inactive)

SMILES: CNc1nc(C)cc(C)c1S(=O)(=O)c1ccc(Cl)cc1
- AC50 [15]: 28.2 µM (inconclusive)
- AC50 [16]: inconclusive

SMILES: NNC(=O)Cc1cccnc1
- AC50 [15]: 0.631 µM (inconclusive)
- AC50 [16]: inconclusive

SMILES: C[C@@H]1C[C@]2(C[C@@H](C)[C@H]3C(C[C@@]4(C)CCC[C@@H]5C6=C[C@H](CCC34C)OC6=CC(=O)OC5(C)C)O2)OC1=O (stereo partly specified)
- GI50 [10]: > 51.5 µM (inactive)
- GI50 [11]: > 51.5 µM (inactive)
- GI50 [12]: > 51.5 µM (inactive)

SMILES: Cc1ccc(C)c2sc(NC(=O)c3ccc(N4CCCCC4)c([N+](=O)[O-])c3)nc12
- AC50 [17]: 3.98 µM (inconclusive)
- AC50 [16]: inconclusive

SMILES: CC(C)Nc1ccc(C(CC(N)=O)NC(=O)Cc2ccc(Br)cc2)cc1[N+](=O)[O-] (stereo unspecified)
- IC50 [9]: > 80 µM (inactive)

SMILES: CCCCC(=O)N/N=C(\C)CC(=O)Nc1cc(Cl)ccc1OC
- AC50 [15]: 12.6 µM (inconclusive)
- AC50 [16]: inconclusive

SMILES: COC(=O)CNC(=O)c1sc2ncn(CC(=O)Nc3ccc(C)c(Cl)c3)c(=O)c2c1C
- IC50 [18]: 1.82 µM (not active)

SMILES: CC1=NN(C(=O)c2ccc(C)cc2)C(=O)C1/N=N/c1ccccc1C(=O)O (stereo unspecified)
- GI50 [10]: 17.5 µM (inactive)
- GI50 [11]: > 100 µM (inactive)
- GI50 [12]: > 100 µM (inactive)

SMILES: O=C1C(CO)=C[C@H](O)[C@H]2O[C@@H]12
- GI50 [10]: 38.9 µM (inactive)
- GI50 [11]: 116 µM (inactive)
- GI50 [12]: 29.9 µM (inactive)

SMILES: COc1ccccc1-c1cc(NCc2ccccc2)ncn1
- AC50 [16]: inconclusive

SMILES: CC(=O)N1CCN(S(=O)(=O)c2cccc(C(=O)Nc3ccccc3N3CCCC3)c2)CC1
- AC50 [2]: 3.27 µM (active)

SMILES: COc1cc(Cn2c(-c3nonc3N)nc3ccccc32)ccc1C
- EC50 [1]: 9.66 µM (inconclusive)
- EC50 [3]: 7.81 µM (active)
- IC50 [9]: > 80 µM (inactive)
- EC50 [4]: 10.3 µM (active)

SMILES: CSc1cc(=O)n2c3ccccc3c3ccnc1c32
- GI50 [10]: > 100 µM (inactive)
- GI50 [11]: 81.5 µM (inactive)
- GI50 [12]: > 100 µM (inactive)

SMILES: COc1ccc(N2C(=O)CSC2c2ccccc2)cc1 (stereo unspecified)
- AC50 [2]: 1.9 µM (active)

SMILES: O=C(COc1ccc(F)cc1)NN1C(=O)CSC1=S
- IC50 [18]: 1.42 µM (not active)

SMILES: CC1(C)CC(=O)C2=C(C1)N1C(=C(C#N)C2c2ccc(Cl)cc2)N=C(N)c2ccccc21 (stereo unspecified)
- EC50 [19]: > 260 µM (inactive)
- CC50 [6]: > 25 µM (active)

SMILES: Cc1cccc(C(=O)ON=C(N)c2cccc([N+](=O)[O-])c2)c1
- AC50 [17]: 17.8 µM (inconclusive)
- AC50 [20]: 7.08 µM (inconclusive)
- AC50 [16]: inconclusive

SMILES: Cc1cn(C2CC(O)C(CO)O2)c(=O)[nH]c1=O (stereo unspecified)
- GI50 [10]: 57.4 µM (inactive)
- GI50 [11]: 857 µM (inactive)
- GI50 [12]: 91.8 µM (inactive)

SMILES: CCc1ccc(N2C(=O)C(Cl)=C(Nc3ccc(C(=O)N4CCCC4)cc3)C2=O)cc1
- IC50 [9]: > 80 µM (inactive)

SMILES: Oc1ccc(N2CCN(c3nnnn3-c3ccccc3)CC2)cc1
- AC50 [2]: 1.9 µM (active)

SMILES: CCOC(=O)N1CCN(C(=O)c2ccc(NS(C)(=O)=O)cc2)CC1
- IC50 [18]: > 50 µM (not active)

SMILES: CCOc1cc(/C=N/n2cnnc2)ccc1OS(=O)(=O)c1ccccc1
- IC50 [18]: > 50 µM (not active)

SMILES: CCN(CC)c1ccc(/C=N/Nc2nc(C)cc(O)n2)cc1
- AC50 [2]: 0.456 µM (active)
- AC50 [20]: 22.4 µM (inconclusive)
- AC50 [15]: 25.1 µM (inconclusive)
- AC50 [16]: inconclusive
- AC50 [21]: 12.6 µM (inconclusive)

SMILES: CCSc1nnc(NC(=O)NC(CC)(C(F)(F)F)C(F)(F)F)s1
- CC50 [6]: 16.5 µM (active)
- AC50 [22]: 7.03 µM (active)

SMILES: CCCCOc1ccc(C(=O)OC(C)CN(C)C)cc1 (stereo unspecified)
- IC50 [18]: > 50 µM (not active)

SMILES: C[S+]([O-])c1ccccc1-c1nc(-c2cccc(Cl)c2)no1 (stereo unspecified)
- IC50 [18]: > 50 µM (not active)

SMILES: CN(N=Nc1[nH]cnc1C(N)=O)C1CCCCC1
- AC50 [23]: 6.78 µM (active)

SMILES: Cc1cc(C)cc(C(=N)c2ccccc2Cc2cccc3ccccc23)c1
- AC50 [17]: 2.51 µM (inconclusive)
- AC50 [16]: inconclusive

SMILES: CCSc1nnc(NC(=O)c2cccs2)s1
- IC50 [18]: 15 µM (not active)
